Literature values, collected in patent US20030162803A1, “Anhydrovinblastine for the treatment of cancer” (priority 1997, published 2003).

Settings: triphasic elimination profile; cited from earlier work

CC[C@]1(O)C[C@@H]2CN(CCc3c([nH]c4ccccc34)[C@@](C(=O)OC)(c3cc4c(cc3OC)N(C)[C@H]3[C@@](O)(C(=O)OC)[C@H](OC(C)=O)[C@]5(CC)C=CCN6CC[C@]43[C@@H]65)C2)C1 [Vinblastine]
initial alpha half-life: less than 5 minutes
